Experimental findings from US8609695B2, “Methods of treating and/or suppressing insulin resistance” (Endorecherche, Inc., priority 1999, dated 2013) are described below.

Assay [1] deals with intact female rats. Description: 6-month treatment, fat accumulation in intact female rats receiving or not LHRH-A (Example 5). It counts as in vivo, Rattus norvegicus. The arrangement: FAT (%): dose or concentration left out as unconfirmed. The note with it: 6 months; for FAT (%): DEXA, once daily; for increment of the percentage of body fat under LHRH-A: concomitant with LHRH-A. The procedure: The objective of this study is to determine the effect on fat of treatment with EM-652.HCl and dehydroepiandrosterone (DHEA) in intact female rats receiving or not a luteinizing hormone releasing hormone agonist (LHRH-A, LHRH ethylamide diacetate). For this purpose, intact female rats, treated or not with LHRH-A (2 μg/rat), received daily administration of EM-652.HCl (2.5 mg/kg) and DHEA (100 mg/kg), alone or in combination, for 6 months. EM-652.HCl was administered orally, DHEA was applied topically while LHRH-A was injected subcutaneously. All treatments were administered once daily.
One hundred twenty rats were separated into 8 groups of 15 animals for conduct of the study outlined below:
The LHRH-A is available in solution at a concentration of 1.0 mg/ml. We diluted this concentrated solution (in order to obtain a final concentration of 0.004 mg/ml) by using the following vehicle: 0.3% Sodium Chloride and 0.25% Sodium Phosphate monobasic, monohydrate in water. The sodium hydroxide (aqueous) was used to adjust the pH between 5.6-6.2.
Dosing suspensions/solutions were prepared every two weeks according to the most recent body weight (group mean) except for the LHRH-A solution. For EM-652.HCl administered orally, the vehicle (0.4% methylcellulose) was added to the tested compound, previously weighed into a glass bottle, at least 48 hours prior to the first dosing day. To ensure the homogeneity of dosing suspension, it was stirred at least 48 hours at 2 to 8 C. Dosing suspension was kept at 2 to 8 C. For DHEA solution applied topically, the ethanol was added to DHEA and the mix were agitated until dissolution of DHEA. Then, the polypropylene glycol was added and the solution agitated until homogeneity. Dosing solution was kept at 2 to 8 C. For LHRH-A solution injected subcutaneously, a dilution of the concentrated solution using the appropriate vehicle was prepared every month. Dosing solution was kept at 2 to 8 C.
The administration of tested compounds or vehicle was given from on Study Day 1 of the protocol. The tested compounds were given as suspension in 0.4% methylcellulose by oral gavage (0.5 ml/gavage/rat) once daily or were applied topically in 50% ethanol-50% propylene glycol (0.5 ml/application/rat) once daily. Rats from groups 5 to 8 received also the LHRH-A once daily by subcutaneous injection (0.5 ml/injection/rat). Rats not receiving a tested compound orally and/or topically received the appropriate vehicle alone.
Body composition was measured on whole skeleton of animal under Isoflurane-induced anesthesia using dual energy x-ray absorptiometry (DEXA; QDR 4500A, Hologic) during the acclimation period and after 6 months of treatment.

Assay [2] concerns ovariectomized female rats. Description: 34-week treatment with ethynyl estradiol, EM-652.HCl, Raloxifene and DHEA, body fat (Example 7). It counts as in vivo, rat. The note with it: OVX rats, 34 weeks; for Fat %: DEXA; for Fat % / Left retroperitoneal adipose tissue / Right retroperitoneal adipose tissue: EE2 0.1, Raloxifene 1, EM-652.HCl 1 mg/kg oral, DHEA 80 mg/kg topical. The procedure: The objective of this study was to assess the effect of a combined treatment with EM-652.HCl, and DHEA on body fat and body weight parameters in ovariectomized rats. For this purpose, ovariectomized rats received daily administration of EM-652.HCl (1 mg/kg), and DHEA (80 mg/kg) alone or in combination, for 34 weeks. EM-652.HCl was administered orally while DHEA was applied topically on dorsal skin. One group of animals was orally treated with 17-ethynylestradiol (0.1 mg/kg) and Raloxifene (EM-1105; 1 mg/kg) for comparison.
Ten to twelve week-old female Sprague-Dawley rats (Crl:CD(SD)Br) weighing approximately 235-250 g at start of treatment were used. Eighty rats were randomly distributed between 7 groups of 11 to 12 animals per group as follows: 1) Intact control; 2) OVX control; 3) OVX+EE2 (0.1 mg/kg); 4) OVX+raloxifene (1 mg/kg); 5) OVX+EM-652.HCl (1 mg/kg); 6) OVX+DHEA (80 mg/kg); 7) OVX+EM-652.HCl+DHEA. On day 1 of the study, the animals of the appropriate groups were bilaterally ovariectomized (OVX) under isoflurane anesthesia. EM-652.HCl, raloxifene and EE2 (Steraloids) were administered once daily by oral gavage as suspension in 0.4% methylcellulose (0.5 ml/rat) for 34 weeks while DHEA was applied topically once daily on dorsal skin as a solution in 50% ethanol-50% propylene glycol (0.5 ml/rat) for the same time period. Approximately 24 hours after the last dosing, overnight fasted animals were killed by exsanguination at the abdominal aorta under isoflurane anesthesia. Left and right retroperitoneal adipose tissues were collected and weighed.
After 34 weeks of treatment, individual rats under anesthesia with isoflurane had their whole body skeleton scanned using dual energy x-ray absorptiometry (DEXA; QDR 4500A, Hologic, Waltham, Mass.) and a Regional High Resolution Scan software. The body composition (including fat percentage) was determined.
Data were expressed as the means±SEM.

For the compound `CC1=C(c2ccc(O)cc2)[C@H](c2ccc(OCCN3CCCCC3)cc2)Oc2cc(O)ccc21.Cl` [EM-652.HCl, (S)-(+)-7-hydroxy-3-(4′-hydroxyphenyl)-4-methyl-2-(4″-(2′″-piperidino-ethoxy)phenyl)-2H-1-benxopyran hydrochloride], in assay [1], the “FAT (%)” value amounted to 19.1 ± 1.4% and the “increment of the percentage of body fat under LHRH-A” value was found to be 35%. For the same compound, in assay [2], the “increment of body fat and retroperitoneal adipose tissue by ovariectomy” value is given as “prevented”; the Fat % was 27.7 ± 1.8%; the “Left retroperitoneal adipose tissue” value is 2.19 ± 0.28 g; the “Right retroperitoneal adipose tissue” value is 2.07 ± 0.18 g.
Turning to `C[C@]12CC[C@H](O)CC1=CC[C@@H]1[C@@H]2CC[C@]2(C)C(=O)CC[C@@H]12` [DHEA, dehydroepiandrosterone], in assay [1], the “FAT (%)” value is 20.2 ± 2.3% and the “increment of the percentage of body fat under LHRH-A” value turned out to be 19%. In assay [2], the “increment of body fat and retroperitoneal adipose tissue by ovariectomy” value is “prevented”; the Fat % is 26.8 ± 2.3%; the “Left retroperitoneal adipose tissue” value is on record as 1.98 ± 0.17 g; the “Right retroperitoneal adipose tissue” value is on record as 2.16 ± 0.25 g.
